Assay results reported in ChEMBL document CHEMBL4610101, “Antimalarial Eudesmane Sesquiterpenoids from Dobinea delavayi” (2020).
Values belong to the compound of their own block, whether it stands above or below them. The source made the active and inactive calls. The rule behind the calls is not given here.

Columns and labels:
Plasmodium yoelii [1] = assay: (§1) Antimalarial activity against Plasmodium yoelii BY265RFP infected in Kunming mouse assessed as inhibition of parasitemia at 30 mg/kg/day, ig administered for 4 days starting from 3 hrs post infection and measured at 4 days post infection by Wright-Giemsa staining based microscopic assay relative to control; type: functional; conditions: po
Plasmodium yoelii [2] = assay: Disruption of mitochondrial membrane potential in Plasmodium yoelii BY265RFP infected in mouse erythrocytes assessed as red/green fluorescence ratio at 3 uM incubated for 12 hrs by JC1 staining based laser-scanning confocal microscopic analysis (reference value: 1.55 +/- 0.08); type: functional
Mus musculus [3] = assay: (§2) Immunomodulatory activity in Kunming mouse infected with Plasmodium yoelii BY265RFP assessed as proportion of splenic CD4+CD25+ Tregs within CD4+ cells at 15 mg/kg/day, ig administered for 4 days starting from 3 hrs post infection and measured at 4 days post infection by FACSCalibur flow cytometry (reference value: 11.2 +/- 0.5%); type: functional
Mus musculus [4] = assay: Immunomodulatory activity in Kunming mouse infected with Plasmodium yoelii BY265RFP assessed as decrease in IgG at 30 mg/kg/day, ig administered for 4 days starting from 3 hrs post infection and measured at 4 days post infection by FACSCalibur flow cytometry; type: functional, organism-based
Plasmodium yoelii [5] = assay: Disruption of mitochondrial membrane potential in Plasmodium yoelii BY265RFP infected in mouse erythrocytes assessed as red/green fluorescence ratio at 0.03 uM incubated for 12 hrs by JC1 staining based laser-scanning confocal microscopic analysis (reference value: 1.55 +/- 0.08); type: functional
Plasmodium yoelii [6] = assay: Induction of intracellular ROS production in Plasmodium yoelii BY265RFP infected in mouse erythrocytes at 0.03 to 3 uM after 12 hrs by DCFH-DA staining based laser-scanning confocal microscopic analysis; type: functional, organism-based
Plasmodium yoelii [7] = assay: Antimicrobial activity against Plasmodium yoelii BY265RFP infected in Kunming mouse assessed as recovery of erythrocyte at 15 to 30 mg/kg/day, ig administered for 4 days starting from 3 hrs post infection and measured at 4 days post infection; type: functional, organism-based
Plasmodium yoelii [8] = assay: as §1, with “15” for “30”; type: functional; conditions: po
Mus musculus [9] = assay: Immunomodulatory activity in Kunming mouse infected with Plasmodium yoelii BY265RFP assessed as increase in IFN-gamma at 30 mg/kg/day, ig administered for 4 days starting from 3 hrs post infection and measured at 4 days post infection by FACSCalibur flow cytometry; type: functional, organism-based
Mus musculus [10] = assay: Immunomodulatory activity in Kunming mouse infected with Plasmodium yoelii BY265RFP assessed as decrease in IL-10 at 30 mg/kg/day, ig administered for 4 days starting from 3 hrs post infection and measured at 4 days post infection by FACSCalibur flow cytometry; type: functional, organism-based
Mus musculus [11] = assay: as §2, with “30” for “15”; type: functional
Plasmodium yoelii [12] = assay: Antimicrobial activity against Plasmodium yoelii BY265RFP infected in Kunming mouse assessed as relief from hepatomegaly at 15 to 30 mg/kg/day, ig administered for 4 days starting from 3 hrs post infection and measured at 4 days post infection; type: functional, organism-based
Hemozoin = assay: Inhibition of beta-hematin formation incubated for 5 hrs
Mus musculus [13] = assay: as §2, with “10” for “15”; type: functional
Mus musculus [14] = assay: Immunomodulatory activity in Kunming mouse infected with Plasmodium yoelii BY265RFP assessed as increase in IL-12 at 30 mg/kg/day, ig administered for 4 days starting from 3 hrs post infection and measured at 4 days post infection by FACSCalibur flow cytometry; type: functional, organism-based
Plasmodium yoelii [15] = assay: Antimicrobial activity against Plasmodium yoelii BY265RFP infected in Kunming mouse assessed as increase in hemoglobin level at 15 to 30 mg/kg/day, ig administered for 4 days starting from 3 hrs post infection and measured at 5 days post infection; type: functional, organism-based
Plasmodium yoelii [16] = assay: Antimicrobial activity against Plasmodium yoelii BY265RFP infected in Kunming mouse assessed as recovery of abdominal temperature at 15 to 30 mg/kg/day, ig administered for 4 days starting from 3 hrs post infection and measured at 5 days post infection; type: functional, organism-based
Plasmodium yoelii [17] = assay: Disruption of mitochondrial membrane potential in Plasmodium yoelii BY265RFP infected in mouse erythrocytes assessed as red/green fluorescence ratio at 0.3 uM incubated for 12 hrs by JC1 staining based laser-scanning confocal microscopic analysis (reference value: 1.55 +/- 0.08); type: functional
Plasmodium yoelii [18] = assay: as §1, with “50” for “30”; type: functional; conditions: po
Plasmodium yoelii [19] = assay: as §1, with “10” for “30”; type: functional; conditions: po

SMILES: C/C=C(/C)C(=O)O[C@H]1CC[C@]2(C)C[C@]3(O)OC(=O)C(C)=C3C[C@H]2[C@]1(C)OC(C)=O
inhibition in vivo at 30 mg/kg/day (Plasmodium yoelii [1]): 14.5%

SMILES: C/C=C(/C)C(=O)O[C@H]1CC[C@]2(C)CC(=O)[C@@H](C(C)C(=O)O)C[C@H]2[C@]1(C)O (stereo partly drawn)
inhibition in vivo at 30 mg/kg/day (Plasmodium yoelii [1]): 3.9%

SMILES: C/C=C(/C)C(=O)O[C@H]1CC[C@]2(C)C[C@@H]3OC(=O)C(C)=C3C[C@H]2[C@]1(C)OC(C)=O
inhibition in vivo at 30 mg/kg/day (Plasmodium yoelii [1]): 15%

SMILES: C/C=C(/C)C(=O)O[C@H]1CC[C@]2(C)C[C@]3(O)OC(=O)C(C)=C3C[C@H]2[C@]1(C)O
inhibition in vivo at 30 mg/kg/day (Plasmodium yoelii [1]): -1.9%

inhibition (Hemozoin): inactive
SMILES: C/C=C(/C)C(=O)O[C@H]1CC[C@]2(C)C[C@@H](C(C)=O)C[C@H]2[C@]1(C)OC(C)=O
Ratio (Plasmodium yoelii [2]): 1.22
Activity (Mus musculus [3]): 8.6%
Activity (Mus musculus [4]): Active
Ratio (Plasmodium yoelii [5]): 1.51
inhibition in vivo at 30 mg/kg/day (Plasmodium yoelii [1]): 59.1%
Activity (Plasmodium yoelii [6]): Active
Activity (Plasmodium yoelii [7]): Active
inhibition in vivo at 15 mg/kg/day (Plasmodium yoelii [8]): 33.8%
Activity (Mus musculus [9]): Active
Activity (Mus musculus [10]): Active
Activity (Mus musculus [11]): 7.6%
Activity (Plasmodium yoelii [12]): Active
Activity (Mus musculus [13]): 6.7%
Activity (Mus musculus [14]): Active
Activity (Plasmodium yoelii [15]): Active
Activity (Plasmodium yoelii [16]): Active
Ratio (Plasmodium yoelii [17]): 1.35

SMILES: C[C@@H]1CC[C@H]2[C@@H](C)C(=O)O[C@@H]3O[C@@]4(C)CC[C@@H]1[C@]32OO4 [ARTEMISININ]
Ratio (Plasmodium yoelii [2]): 1.18
Ratio (Plasmodium yoelii [5]): 1.43
inhibition in vivo at 50 mg/kg/day (Plasmodium yoelii [18]): 54.4%
Ratio (Plasmodium yoelii [17]): 1.33

SMILES: CCN(CC)CCCC(C)Nc1ccnc2cc(Cl)ccc12 (stereo not drawn) [CHLOROQUINE PHOSPHATE]
inhibition in vivo at 10 mg/kg/day (Plasmodium yoelii [19]): 97.9%

SMILES: C/C=C(/C)C(=O)O[C@H]1CC[C@]2(C)CC(=O)C[C@H]2[C@]1(C)OC(C)=O
inhibition in vivo at 30 mg/kg/day (Plasmodium yoelii [1]): 18.5%
